From paper PMC8880564, “Design, Synthesis, and Biological Evaluation of a Novel VEGFR-2 Inhibitor Based on a 1,2,5-Oxadiazole-2-Oxide Scaffold with MAPK Signaling Pathway Inhibition” (Pharmaceuticals, 2022)

Columns and labels:
Assay in all cases: NCI-60 one-dose SRB screening
Assay type in all cases: cell-based
786-0 = settings: Homo sapiens, 786-0, Renal Cancer, 10 µM one dose, 48 h, read-out: growth percentage
Protocol: (§1) The structures of the synthesized compounds 6a–h, 12a–c, 11, 13a–c, and 14a–c were submitted to the National Cancer Institute’s Developmental Therapeutics Program (NCI-DTP), and all of them were selected for preliminary in vitro anticancer activity screening against NCI-59 human cancer cell lines at a concentration of 10 µM, using the sulforhodamine B (SRB) assay to determine the growth percentage and cell viability.
(§2) The in vitro NCI-60 cell line screening assay was conducted at the National Cancer Institute (NCI), Bethesda, USA against 59 cancer cell lines representing 9 types of cancers, as reported earlier. Briefly, the human cancer cell lines were grown in RPMI 1640 medium containing 5% fetal bovine serum and 2 mM L-glutamine and inoculated into 96-well microtiter plates in 100 μL (5000 to 40,000 cells/well). Then, the plates were incubated at 37 °C, 5% CO2, 95% air, and 100% relative humidity for 24 h. After that, two plates of each cell line were fixed in situ with TCA, to represent cell population at time zero (Tz). The tested compounds were dissolved in DMSO at 400-fold and added so that the final concentration became 10 μM. The plates were then incubated for an additional 48 h followed by the addition of cold TCA to terminate the assay in case of adherent cells. Then, the cells were fixed in situ by cold 50% (w/v) TCA (50 μL; final concentration, 10% TCA) and incubated for 1 h at 4 °C. After discarding the supernatant, the plates were washed 5 times with tap water and air dried. Sulforhodamine B (SRB) solution (100 μL) at 0.4% (w/v) in 1% HOAc was added to each well, and plates were incubated for 10 min. at rt. Then, washing with 1% acetic acid was conducted 5 times to remove the unbound dye followed by air drying. After that, 10 mM trizma base was added to solubilize the bound stain, and the absorbance was read on an automated plate reader at a wavelength of 515 nm. On the other hand, the methodology for suspension cells was the same except that 50 μL of 80% TCA (final concentration, 16% TCA) was gently added to terminate the assay by fixing settled cells at the bottom of the wells. Percentage growth inhibition (GI%) was calculated as follows:
(§3) Growth percentage=Ti (test growth in the presence of compound at 10 µM )−Tz (time zero)/C (control growth)−Tz (time zero)×100 for Ti ≥ Tz;
(§4) Growth percentage=Ti (test growth in the presence of compound at 10 µM )−Tz (time zero)/Tz (time zero)×100 for Ti < Tz.
(§5) where values of 100, 40, 0, −40, and −100 mean no GI, 60% GI, no net G, 40% lethality, and all cells are dead, respectively.

A498 = settings: Homo sapiens, A498, Renal Cancer, 10 µM one dose, 48 h, read-out: growth percentage
Protocol: as §1, §2, §3, §4, §5

ACHN = settings: Homo sapiens, Renal Cancer, 10 µM one dose, 48 h, read-out: growth percentage
Protocol: as §1, §2, §3, §4, §5

COLO 205 = settings: Homo sapiens, COLO 205, Colon Cancer, 10 µM one dose, 48 h, read-out: growth percentage
Protocol: as §1, §2, §3, §4, §5

HCT-116 = settings: Homo sapiens, HCT-116, Colon Cancer, 10 µM one dose, 48 h, read-out: growth percentage
Protocol: as §1, §2, §3, §4, §5

HCT-15 = settings: Homo sapiens, HCT-15, Colon Cancer, 10 µM one dose, 48 h, read-out: growth percentage
Protocol: as §1, §2, §3, §4, §5

HL-60(TB) = settings: Homo sapiens, Leukemia, 10 µM one dose, 48 h, read-out: growth percentage
Protocol: as §1, §2, §3, §4, §5

HOP-62 = settings: Homo sapiens, HOP-62, Non-Small Cell Lung Cancer, 10 µM one dose, 48 h, read-out: growth percentage
Protocol: as §1, §2, §3, §4, §5

HOP-92 = settings: Homo sapiens, HOP-92, Non-Small Cell Lung Cancer, 10 µM one dose, 48 h, read-out: growth percentage
Protocol: as §1, §2, §3, §4, §5

IGROV1 = settings: Homo sapiens, IGROV-1, IGROV1, Ovarian Cancer, 10 µM one dose, 48 h, read-out: growth percentage
Protocol: as §1, §2, §3, §4, §5

K-562 = settings: Homo sapiens, K562, K-562, Leukemia, 10 µM one dose, 48 h, read-out: growth percentage
Protocol: as §1, §2, §3, §4, §5

LOX IMVI = settings: Homo sapiens, Melanoma, 10 µM one dose, 48 h, read-out: growth percentage
Protocol: as §1, §2, §3, §4, §5

MDA-MB-231/ATCC = settings: Homo sapiens, Breast Cancer, 10 µM one dose, 48 h, read-out: growth percentage
Protocol: as §1, §2, §3, §4, §5

NCI-H23 = settings: Homo sapiens, NCI-H23, Non-Small Cell Lung Cancer, 10 µM one dose, 48 h, read-out: growth percentage
Protocol: as §1, §2, §3, §4, §5

NCI-H522 = settings: Homo sapiens, NCI-H522, Non-Small Cell Lung Cancer, 10 µM one dose, 48 h, read-out: growth percentage
Protocol: as §1, §2, §3, §4, §5

NCI/ADR-RES = settings: Homo sapiens, Ovarian Cancer, 10 µM one dose, 48 h, read-out: growth percentage
Protocol: as §1, §2, §3, §4, §5

OVCAR-3 = settings: Homo sapiens, OVCAR-3, Ovarian Cancer, 10 µM one dose, 48 h, read-out: growth percentage
Protocol: as §1, §2, §3, §4, §5

OVCAR-5 = settings: Homo sapiens, OVCAR-5, Ovarian Cancer, 10 µM one dose, 48 h, read-out: growth percentage
Protocol: as §1, §2, §3, §4, §5

SF-295 = settings: Homo sapiens, SF-295, CNS Cancer, 10 µM one dose, 48 h, read-out: growth percentage
Protocol: as §1, §2, §3, §4, §5

SF-539 = settings: Homo sapiens, SF-539, CNS Cancer, 10 µM one dose, 48 h, read-out: growth percentage
Protocol: as §1, §2, §3, §4, §5

SN12C = settings: Homo sapiens, Renal Cancer, 10 µM one dose, 48 h, read-out: growth percentage
Protocol: as §1, §2, §3, §4, §5

T-47D = settings: Homo sapiens, T47D, Breast Cancer, 10 µM one dose, 48 h, read-out: growth percentage
Protocol: as §1, §2, §3, §4, §5

Compound	activity at 10 µM (786-0)	activity at 10 µM (A498)	activity at 10 µM (ACHN)	activity at 10 µM (COLO 205)	activity at 10 µM (HCT-116)	activity at 10 µM (HCT-15)	activity at 10 µM (HL-60(TB))	activity at 10 µM (HOP-62)	activity at 10 µM (HOP-92)	activity at 10 µM (IGROV1)	activity at 10 µM (K-562)	activity at 10 µM (LOX IMVI)	activity at 10 µM (MDA-MB-231/ATCC)	activity at 10 µM (NCI-H23)	activity at 10 µM (NCI-H522)	activity at 10 µM (NCI/ADR-RES)	activity at 10 µM (OVCAR-3)	activity at 10 µM (OVCAR-5)	activity at 10 µM (SF-295)	activity at 10 µM (SF-539)	other results
Nc1ccc(NCc2c(-c3ccccc3)no[n+]2[O-])cc1 [compound 11, 3-(((4-aminophenyl)amino)methyl)-4-phenyl-1,2,5-oxadiazole 2-oxide]	140%	108%	104%	121%	98.4%	104%	95.5%	136%	116%	88.7%	99.1%	107%	104%	105%	93.5%	104%	111%	116%	117%	104%	activity at 10 µM (SN12C): 109%; activity at 10 µM (T-47D): 101%
Cc1nc(Nc2ccc(OCc3c(-c4ccccc4)no[n+]3[O-])cc2)c2cnn(-c3ccc(Br)cc3)c2n1 [6f, 3-((4-((1-(4-bromophenyl)-6-methyl-1H-pyrazolo[3,4-d]pyrimidin-4-yl)amino)phenoxy)methyl)-4-phenyl-1,2,5-oxadiazole 2-oxide]	82.2%	87.2%	101%	119%	97.5%	98.1%	100%	110%	111%	101%	91.1%	105%	106%	95.8%	92.5%	106%	114%	99.3%	102%	94.2%	activity at 10 µM (SN12C): 94.8%; activity at 10 µM (T-47D): 97.2%
Cc1nn(-c2ccccc2)c2ncnc(Nc3ccc(OCc4c(-c5ccccc5)no[n+]4[O-])cc3)c12 [6c, 3-((4-((3-methyl-1-phenyl-1H-pyrazolo[3,4-d]pyrimidin-4-yl)amino)phenoxy)methyl)-4-phenyl-1,2,5-oxadiazole 2-oxide]	107%	86.3%	97.3%	116%	81.8%	91.5%	119%	105%	91.2%	97.1%	90.2%	101%	95.7%	98.1%	84.8%	91.7%	105%	104%	99%	96.2%	activity at 10 µM (SN12C): 87.9%; activity at 10 µM (T-47D): 72%
Cc1nc(Nc2ccc(OCc3c(-c4ccccc4)no[n+]3[O-])cc2)c2cnn(-c3ccccc3)c2n1 [6b, 3-((4-((6-methyl-1-phenyl-1H-pyrazolo[3,4-d]pyrimidin-4-yl)amino)phenoxy)methyl)-4-phenyl-1,2,5-oxadiazole 2-oxide]	95.8%	102%	105%	114%	99.2%	96.4%	122%	103%	91.4%	101%	111%	97.6%	106%	102%	96.3%	103%	109%	106%	97.1%	102%	activity at 10 µM (SN12C): 101%; activity at 10 µM (T-47D): 106%
[O-][n+]1onc(-c2ccccc2)c1COc1ccc(Nc2ncnc3c2cnn3-c2ccccc2)cc1 [6a, 4-phenyl-3-((4-((1-phenyl-1H-pyrazolo[3,4-d]pyrimidin-4-yl)amino)phenoxy)methyl)-1,2,5-oxadiazole 2-oxide]	115%	103%	105%	104%	93%	54.2%	94.7%	107%	115%	95%	88%	94.3%	97.5%	105%	99.2%	102%	95.9%	110%	98.4%	95.7%	activity at 10 µM (SN12C): 97.3%; activity at 10 µM (T-47D): 96%
Cc1nc(Nc2ccc(OCc3c(-c4ccccc4)no[n+]3[O-])cc2)c2c(C)nn(-c3ccccc3)c2n1 [6d, 3-((4-((3,6-dimethyl-1-phenyl-1H-pyrazolo[3,4-d]pyrimidin-4-yl)amino)phenoxy)methyl)-4-phenyl-1,2,5-oxadiazole 2-oxide]	107%	112%	95.5%	107%	104%	104%	111%	107%	104%	106%	99.3%	96.6%	101%	102%	105%	102%	114%	101%	108%	99.8%	activity at 10 µM (SN12C): 98.4%; activity at 10 µM (T-47D): 104%
